Experimental data: the NIST ThermoML archive (doi:10.1021/acs.jced.8b00837)
“And” between values parts separate entries of the source, which are not always exact repeats. Equal values may be shown once. ± gives the expanded uncertainty stated by the source.

Settings: Liquid, Vibrating tube method

CCCCn1cc[n+](C)c1.O=S(=O)([O-])C(F)(F)F [1-butyl-3-methylimidazolium trifluoromethanesulfonate]
Settings	mass density
333.15 K, 79293 kPa	1313.31 ± 2.5 kg/m3
333.15 K, 89992 kPa	1318.4 ± 2.7 kg/m3
333.15 K, 98041 kPa	1322.14 ± 2.8 kg/m3
333.15 K, 109813 kPa	1327.45 ± 3 kg/m3
333.16 K, 49998 kPa	1298.5 ± 2.1 kg/m3
333.16 K, 59777 kPa	1303.59 ± 2.2 kg/m3
333.16 K, 119774 kPa	1331.81 ± 3.1 kg/m3
333.16 K, 129813 kPa	1336.09 ± 3.3 kg/m3
333.16 K, 138881 kPa	1339.86 ± 3.5 kg/m3
333.17 K, 39827 kPa	1293.05 ± 1.9 kg/m3
343.15 K, 101 kPa	1262.32 ± 1.4 kg/m3
353.13 K, 5397 kPa	1257.9 ± 1.5 kg/m3
353.14 K, 1725 kPa	1255.5 ± 1.4 kg/m3
353.14 K, 10408 kPa	1261.13 ± 1.5 kg/m3
353.14 K, 60245 kPa	1290.27 ± 2.2 kg/m3
353.14 K, 69993 kPa	1295.39 ± 2.3 kg/m3
353.14 K, 79196 kPa	1300.06 ± 2.4 kg/m3
353.14 K, 119409 kPa	1318.82 ± 3 kg/m3
353.15 K, 101 kPa	1254.61 ± 1.4 kg/m3 and 1254.43 ± 1.4 kg/m3
353.15 K, 49992 kPa	1284.69 ± 2 kg/m3
353.15 K, 89993 kPa	1305.36 ± 2.6 kg/m3
353.15 K, 97743 kPa	1309.04 ± 2.7 kg/m3
353.15 K, 109795 kPa	1314.57 ± 2.9 kg/m3
353.15 K, 129794 kPa	1323.26 ± 3.2 kg/m3
353.16 K, 40316 kPa	1279.23 ± 1.9 kg/m3
353.16 K, 139089 kPa	1327.11 ± 3.4 kg/m3
353.17 K, 29996 kPa	1273.21 ± 1.8 kg/m3
353.19 K, 20124 kPa	1267.23 ± 1.6 kg/m3
373.12 K, 78937 kPa	1286.82 ± 2.4 kg/m3
373.14 K, 1630 kPa	1240.5 ± 1.5 kg/m3
373.14 K, 4913 kPa	1242.76 ± 1.5 kg/m3
373.14 K, 40245 kPa	1265.34 ± 1.9 kg/m3
373.14 K, 69993 kPa	1282.13 ± 2.2 kg/m3
373.14 K, 89993 kPa	1292.43 ± 2.5 kg/m3
373.14 K, 99354 kPa	1297.01 ± 2.6 kg/m3
373.14 K, 109823 kPa	1301.97 ± 2.8 kg/m3
373.15 K, 101 kPa	1239.37 ± 1.5 kg/m3 and 1239.44 ± 1.5 kg/m3
373.15 K, 20238 kPa	1252.94 ± 1.7 kg/m3
373.15 K, 29993 kPa	1259.1 ± 1.8 kg/m3
373.15 K, 49994 kPa	1271.05 ± 2 kg/m3
373.15 K, 59359 kPa	1276.34 ± 2.1 kg/m3
373.15 K, 118844 kPa	1306.11 ± 2.9 kg/m3
373.15 K, 129824 kPa	1311 ± 3.1 kg/m3
373.15 K, 139225 kPa	1315.08 ± 3.2 kg/m3
373.16 K, 10553 kPa	1246.58 ± 1.6 kg/m3
393.12 K, 20141 kPa	1238.76 ± 1.6 kg/m3
393.13 K, 29997 kPa	1245.39 ± 1.7 kg/m3
393.13 K, 39789 kPa	1251.72 ± 1.8 kg/m3
393.14 K, 10362 kPa	1231.9 ± 1.5 kg/m3
393.14 K, 99285 kPa	1284.99 ± 2.6 kg/m3
393.14 K, 118691 kPa	1294.13 ± 2.9 kg/m3
393.15 K, 101 kPa	1224.37 ± 1.4 kg/m3 and 1224.41 ± 1.4 kg/m3
393.15 K, 49984 kPa	1258.04 ± 1.9 kg/m3
393.15 K, 69997 kPa	1269.67 ± 2.2 kg/m3
393.15 K, 89992 kPa	1280.34 ± 2.4 kg/m3
393.15 K, 109795 kPa	1290.04 ± 2.7 kg/m3
393.15 K, 129796 kPa	1299.01 ± 3 kg/m3
393.15 K, 139693 kPa	1303.18 ± 3.2 kg/m3
393.16 K, 60109 kPa	1264.05 ± 2 kg/m3
393.16 K, 79320 kPa	1274.76 ± 2.3 kg/m3
393.17 K, 1385 kPa	1225.37 ± 1.5 kg/m3
393.18 K, 5168 kPa	1228.15 ± 1.5 kg/m3
413.13 K, 1691 kPa	1210.63 ± 1.4 kg/m3
413.13 K, 99873 kPa	1273.17 ± 2.5 kg/m3
413.15 K, 101 kPa	1209.6 ± 1.4 kg/m3 and 1209.39 ± 1.4 kg/m3
413.15 K, 5006 kPa	1213.19 ± 1.5 kg/m3
413.15 K, 80334 kPa	1262.84 ± 2.2 kg/m3
413.15 K, 89994 kPa	1268.07 ± 2.4 kg/m3
413.15 K, 109886 kPa	1278.08 ± 2.6 kg/m3
413.17 K, 129886 kPa	1287.14 ± 2.9 kg/m3
413.17 K, 139479 kPa	1291.12 ± 3.1 kg/m3
413.18 K, 69993 kPa	1256.95 ± 2.1 kg/m3
413.18 K, 119193 kPa	1282.42 ± 2.8 kg/m3
413.2 K, 10288 kPa	1217.19 ± 1.5 kg/m3
413.2 K, 19961 kPa	1224.32 ± 1.6 kg/m3
413.2 K, 29916 kPa	1231.38 ± 1.7 kg/m3
413.2 K, 39957 kPa	1238.21 ± 1.8 kg/m3
413.2 K, 49993 kPa	1244.75 ± 1.9 kg/m3
413.21 K, 59956 kPa	1250.96 ± 2 kg/m3
